Laboratory results published in publication PMC7440915, “Discovery of surrogate agonists for visceral fat Treg cells that modulate metabolic indices in vivo” (eLife, 2020).
Where no end group is shown, it is not given here.

Legend:
vTreg53 (Fat) TCR = experiment: Surface plasmon resonance, pMHC/Fat TCR affinity; assay type: binding, murine; settings: 25°C; for Kd: Biacore T100, biotinylated pMHC immobilized on SA chip 200 to 600 RU, HBS-P+, equilibrium, representative of 2 experiments
Procedure: (§1) Figure 3. Identification of robust vTreg53 TCR agonists. Single-point mutants based on the Fat7 (A) or Fat15 (B) peptides were used to stimulate Fat-TCR transduced Jurkat T cells. Data shown are mean fluorescence intensity for CD69 up-regulation following overnight stimulation with the indicated peptides at 100 µM. (C) Potent SPs based on Fat15. Single-residue mutations from the Fat15 are shown in red. Anchor positions are shown in grey and potential TCR-facing positions are shown in green. A peptide titration of single- and double-point mutants from the Fat15 SP show up to ~4- (D; CD69) or ~8 fold (E; CD25) increase in Emax. (F) Surface plasmon resonance for Fat7, Fat15, Fat1562 and Fat2564 was used to determine the pMHC/Fat TCR affinity. All biotinylated pMHC were purified by SEC and immobilized in a streptavidin-coated SPR sensor chip from 200 up to 600 RU. Data are mean ± SD from n = 2 (A, D, E) or 3 (B) biological replicates from 1 representative of 3 independent experiments. Data shown in (F) is representative of 2 independent experiments. Figure 3—figure supplement 1. In vitro peptide stimulation of the vTreg53 TCR cells. (A) Expression of wild-type Ab MHC in stably transduced K562 cells. (B) Expression of vTreg53 TCR in stably transduced Jurkat T cells (TCRαβ-/-). (C) Fraction of CD25+/CD69+ cells following overnight stimulation with Fat mimotopes at the indicated concentrations. (D) Peptide-A^b - streptavidin PE (pAb -SAPE) titration of vTreg53 transduced Jurkat T cells. Cells were stained with 250 nM of pA^b-SAPE tetramer for 1 hr.
High Five cells (Tni; Expression Systems) were grown in Insect X-press media (Lonza) or ESF 921 media (Expression Systems) with a final concentration of 10 mg/L of gentamicin sulfate (ThermoFisher) at 27°C at atmospheric CO2. SF9 cells are grown in SF900-III or -II serum-free media (ThermoFisher) with 10% FBS and final concentration 10 mg/L of gentamicin sulfate and 2 mM glutamax at 27°C at atmospheric CO2. P1 or P2 virus was used to infect volumes of 1–3 L of Hi5 cells at ∼2 × 10^6 cells/ml. Supernatant was harvested 2–3 days post-infection and spun down at 8000 rpm for 15 min. The supernatant containing expressed protein was treated to 100 mM Tris pH 8.0, 1 mM NiCl2, and 5 mM CaCl2 to precipitate contaminants. The supernatant and precipitate mixture was spun down at 8000 rpm for 20 min at 4°C to remove precipitate. The supernatant was incubated with Ni-NTA resin (QIAGEN) for >3 hr at room temperature. Ni-NTA beads were collected and washed in a Buchner funnel with 20 mM imidazole in 1 x HBS pH 7.2 and eluted with 200 mM imidazole in 1x HBS pH 7.2. Protein was concentrated in a 10 kDa filter (Millipore, UFC903024) to ~1 mL. When appropriate, protein was biotinylated with BirA ligase, 100 μM biotin, 40 mM Bicine pH 8.3, 10 mM ATP, and 10 mM Magnesium Acetate at 4°C overnight. All proteins were further purified by size-exclusion chromatography using Superdex Increase S200 or S75, as appropriate (GE Healthcare). All proteins for in vivo studies were cleared of endotoxin. Final endotoxin levels were determined using a chromogenic endotoxin quantitation kit (Thermo Fisher) and never greater than 1 Endotoxin Unit/mg of purified protein.
A GE Biacore T100 was used to measure the KD by equilibrium methods. Approximately 200 resonance units (RU) of human CD45, PD-1 or mouse PD-1 was captured on a SA-chip (GE Healthcare), including a reference channel of an unrelated protein. SPR runs were performed in HBS-P+ (GE Healthcare). All measurements were made with 2-fold serial dilutions using 45–60 s association (at 30 μl/min) followed by >240 s dissociation (30 μl/min) at 25°C. Regeneration was performed using HBS-P+, 2 M MgCl2 or 0.1 M Glycine, pH 3.1 for 15–20 s at 50 μl/min. Measurement of titrations at equilibrium were used to determine the KD using Biacore Analysis Software (GE Healthcare). All measurements were repeated twice.

[1] = tested on: vTreg53 TCR (transduced Jurkat T cells); experiment: CD69/CD25 up-regulation on vTreg53 TCR transduced Jurkat T cells with peptide-pulsed K562-A^b cells; assay type: cell-based, Homo sapiens (cells); murine TCR; settings: for CD25 Emax, fold increase over Fat15: CD25, peptide titration, Figure 3E; for CD69 Emax, fold increase over Fat15: CD69, peptide titration, Figure 3D; for EC50: peptide titration, CD69 (Figure 3D), overnight, mean ± SD from n = 2 biological replicates, 1 representative of 3 experiments
Procedure: as §1
Cell lines were kept in a humidified incubator at 37°C with 5% CO2 unless otherwise denoted. Jurkat T cells (derived from acute T cell leukemia ATCC TIB-152) and K562 cells (ATCC CCL-243) were cultured in RPMI supplemented with 2 mM glutamax (Invitrogen), 10% FBS (Sigma),10 mM HEPES pH 8.0 (ThermoFisher), 1 mM Sodium Pyruvate (Gibco) and 50 U/ml penicillin and streptomycin (ThermoFisher). Validation of T cell lines was performed by staining with known markers pre- and post- transfection or transduction. HEK293T (Lenti-X; Takara Bio USA, #632180) cells (female derived kidney cell line) were grown in DMEM complete media (ThermoFisher) supplemented with 10% FBS, 2 mM L-glutamine, and 50 U/ml of penicillin and streptomycin. Cells were tested for mycoplasma contamination using the MycoAlert Mycoplasma Detection kit (Lonza) and found to be mycoplasma-negative. For peptide assays, Jurkat T cells were rested overnight or for 2–3 hr in fresh RPMI complete. Cells were co-cultured for 16 to 48 hr with surrogate APCs: K562 transduced with A^b. After overnight incubation, cells were washed in MACS buffer and stained with anti-TCR, A^b, CD69 and CD25. EBY100 yeast cells were cultured in sterile filtered standard YPD (Bacto Peptone, glucose and yeast extract). Transformed yeast were grown in SDCAA (yeast nitrogen base, casamino acids -ADE, -URA, -TRP, D-glucose and buffered to pH 4.5 using sodium citrate and citric acid monohydrate) and induced in SGCAA where galactose replaces D-glucose. EBY100 cells are grown at 30°C when cultured in SDCAA, or at 20°C when cultured in SGCAA at atmospheric CO2 in an orbital shaker set to an agitation speed of 250 rpm.

Kd (vTreg53 (Fat) TCR) [µM]	EC50 [1] [µM]	Sequence	koff (vTreg53 (Fat) TCR; SPR)	kon (vTreg53 (Fat) TCR; SPR)	CD69 up-regulation ([1]; overnight stimulation, screen at 100 µM)	affinity (vTreg53 (Fat) TCR; SPR)	CD25 Emax, fold increase over Fat15 [1] [fold]	CD69 Emax, fold increase over Fat15 [1]
34.7		LMFKGPHAVQAVG [Fat7]	fast kon and koff	fast kon	able to up-regulate CD69 expression			
0.347	8.9	TMYKNLRPWAATG [Fat2564]	slowest koff			highest affinity	8.7	~5 fold
	14.3	TMYKNPRPMAATG [Fat1562]	slowest koff			highest affinity	4.1	~ 3 fold
